In patent EP0908457B1, “3-(1,2-benzisothiazol- and isoxazol-5-Y1)-2,4(1H,3H)-pyrimidinedione or thione and 3-(1,2-benzisothiazol- and isoxazol-5-y1)-4(3H)-pyrimidinone or thione herbicidal agents” (BASF AKTIENGESELLSCHAFT, priority 1997, dated 1999):

Tests used:
[1] = system: Echinochloa oryzoides (Ard.) Fritsch.; assay: Preemergence weed control under flooded paddy conditions, ECHORC (Watergrass (Calif.)); format: in vivo; settings: preemergence weeds, flooded paddy, herbicidal effect rating 0-9, three to four weeks after treatment
[2] = system: Cyperus iria; assay: Preemergence weed control under flooded paddy conditions, CYPIR (Rice Flatsedge); format: in vivo; settings: preemergence weeds, flooded paddy, herbicidal effect rating 0-9, three to four weeks after treatment
[3] = system: Cyperus serotinus, Rottb.; assay: Preemergence weed control under flooded paddy conditions, CYPSE (Flatsedge); format: in vivo; settings: preemergence weeds, herbicidal effect rating 0-9, three to four weeks after treatment
[4] = system: Monochoria vaginalis, Presl.; assay: Preemergence weed control under flooded paddy conditions, MOOVA (Monochoria); format: in vivo; settings: preemergence weeds, flooded paddy, herbicidal effect rating 0-9, three to four weeks after treatment
[5] = system: Sagittaria pygmaea, L.; assay: Preemergence weed control under flooded paddy conditions, SAGPY (Arrowhead (Pygmaea)); format: in vivo; settings: preemergence weeds, flooded paddy, herbicidal effect rating 0-9, three to four weeks after treatment
[6] = system: Oryza sativa, (L.) Tebonnet; assay: Rice tolerance to post-transplant applications under flooded paddy conditions (Example 187), ORYSAT (Rice, Tebonnet); settings: herbicidal effect rating 0-9, three to four weeks after treatment

SMILES	ECHORC ([1]; 0.0320 kg/ha)	ECHORC ([1]; 0.0620 kg/ha)	ECHORC ([1]; 0.1250 kg/ha)	ECHORC ([1]; 0.2500 kg/ha)	CYPIR ([2]; 0.0320 kg/ha)	CYPIR ([2]; 0.0620 kg/ha)	CYPIR ([2]; 0.1250 kg/ha)	CYPIR ([2]; 0.2500 kg/ha)	CYPSE ([3]; 0.0320 kg/ha)	CYPSE ([3]; 0.0620 kg/ha)	CYPSE ([3]; 0.2500 kg/ha)	MOOVA ([4]; 0.0320 kg/ha)	MOOVA ([4]; 0.0620 kg/ha)	MOOVA ([4]; 0.1250 kg/ha)	MOOVA ([4]; 0.2500 kg/ha)	SAGPY ([5]; 0.0320 kg/ha)	SAGPY ([5]; 0.0620 kg/ha)	SAGPY ([5]; 0.1250 kg/ha)	SAGPY ([5]; 0.2500 kg/ha)	ORYSAT ([6]; 0.0320 kg/ha)	other results
CCC(C#N)c1nsc2ccc(-n3c(=O)cc(C(F)(F)F)n(C)c3=O)cc12 (stereo not drawn) [Example 444, 1,2-Benzisothiazole-3-acetonitrile, 5-[3,6-dihydro-3-methyl-2,6-dioxo-4-(trifluoromethyl)-1(2H)-pyrimidinyl]-alpha-ethyl-]	3.5	6.0	8.5	9.0	7.5	8.0	9.0	9.0	3.5	9.0	9.0	8.0	9.0	9.0	9.0	4.5	6.0	7.0	9.0	4.5	CYPSE ([3]; 0.1250 kg/ha): 9.0; ORYSAT ([6]; 0.0620 kg/ha): 6.5; ORYSAT ([6]; 0.1250 kg/ha): 9.0; ORYSAT ([6]; 0.2500 kg/ha): 8.5
Cn1c(C(F)(F)F)cc(=O)n(-c2ccc3snc(C4(C#N)CC4)c3c2)c1=O [Example 446, Cyclopropanecarbonitrile, 1-{5-[3,6-dihydro-3-methyl-2,6-dioxo-4-(trifluoromethyl)-1(2H)-pyrimidinyl]-1,2-benzisothiazol-3-yl}-]	6.0	6.0	7.0	9.0	9.0	9.0	9.0	9.0	9.0	9.0	9.0	9.0	9.0	9.0	9.0	9.0	9.0	9.0	9.0	6.0	CYPSE ([3]; 0.1250 kg/ha): 9.0; ORYSAT ([6]; 0.0620 kg/ha): 7.0; ORYSAT ([6]; 0.1250 kg/ha): 9.0; ORYSAT ([6]; 0.2500 kg/ha): 9.0
COc1cc(C(Br)Br)ccc1-c1nsc2ccc(-n3c(=O)cc(C(F)(F)F)n(C)c3=O)cc12 [Example 447, 2,4(1H,3H)-Pyrimidinedione, 3-[3-(alpha,alpha-dibromo-2-methoxy-p-tolyl)-1,2-benzisothiazol-5-yl]-1-methyl-6-(trifluoromethyl)-]	4.0	6.0	7.0	9.0	4.0	6.0	7.0	9.0	0.0	0.0	4.0	7.0	9.0	9.0	9.0	4.0	4.0	5.0	9.0	4.0	ORYSAT ([6]; 0.0620 kg/ha): 4.0; ORYSAT ([6]; 0.1250 kg/ha): 5.0; ORYSAT ([6]; 0.2500 kg/ha): 7.0
CCOCOCc1nsc2ccc(-n3c(=O)cc(C(F)(F)F)n(C)c3=O)cc12 [Example 455, 2,4(1H,3H)-Pyrimidinedione, 3-(3-[(ethoxymethoxy)methyl]-1,2-benzisothiazol-5-yl}-1-methyl-6-(trifluoromethyl)-]	9.0	9.0	9.0	9.0	6.0	7.0	9.0	9.0	2.0	6.0	9.0	6.0	7.0	9.0	9.0	4.0	6.0	7.0	9.0	6.0	CYPSE ([3]; 0.1250 kg/ha): 8.0; ORYSAT ([6]; 0.0620 kg/ha): 8.0; ORYSAT ([6]; 0.1250 kg/ha): 9.0; ORYSAT ([6]; 0.2500 kg/ha): 9.0
